Assay results: the NIST ThermoML archive (doi:10.1016/j.fluid.2012.11.039)

Experiments:
[1] = Liquid, Vibrating tube method
[2] = xn = mol fraction of the nth substance listed; settings: Liquid, Vibrating tube method

CCCCCCCCCC [decane]
[1], 373.2 K
Settings	mass density [kg/m3]
100 kPa	667.1
1000 kPa	668.4
2000 kPa	669.6
3000 kPa	670.9
4000 kPa	672.1
5000 kPa	673.4
6000 kPa	674.5
7000 kPa	675.7
8000 kPa	676.9
9000 kPa	678.1
10000 kPa	679.2

CCCCCCCCCC [decane] + CCCCCCCCCCCCCCCCCC
[2], 373.2 K, x2 = 0
Settings	mass density [kg/m3]
100 kPa	667.1
1000 kPa	668.4
2000 kPa	669.6
3000 kPa	670.9
4000 kPa	672.1
5000 kPa	673.4
6000 kPa	674.5
7000 kPa	675.7
8000 kPa	676.9
9000 kPa	678.1
10000 kPa	679.2

CCCCCCCCCCCCCCCCCC [octadecane]
[1], 372.9 K
Settings	mass density [kg/m3]
1010 kPa	728.2
2010 kPa	729.2
3020 kPa	730.2
4000 kPa	731.1
5000 kPa	732
6020 kPa	732.9
7010 kPa	733.8
8000 kPa	734.7
8990 kPa	735.6
9980 kPa	736.4

CCCCCCCCCCCCCCCCCC [octadecane] + CCCCCCCCCC
[2]
Settings	mass density [kg/m3]
372.7 K, 100 kPa, x1 = 0.25	689.9
372.7 K, 1010 kPa, x1 = 0.25	691
372.7 K, 2010 kPa, x1 = 0.25	692.2
372.7 K, 3020 kPa, x1 = 0.25	693.3
372.7 K, 4010 kPa, x1 = 0.25	694.4
372.7 K, 5010 kPa, x1 = 0.25	695.5
372.7 K, 6010 kPa, x1 = 0.25	696.6
372.7 K, 7010 kPa, x1 = 0.25	697.7
372.7 K, 8010 kPa, x1 = 0.25	698.7
372.7 K, 9020 kPa, x1 = 0.25	699.8
372.7 K, 10010 kPa, x1 = 0.25	700.8
372.8 K, 100 kPa, x1 = 0.5	705.7
372.8 K, 100 kPa, x1 = 0.75	717.8
372.8 K, 1020 kPa, x1 = 0.5	706.8
372.8 K, 1050 kPa, x1 = 0.75	718.9
372.8 K, 2020 kPa, x1 = 0.5	707.8
372.8 K, 2020 kPa, x1 = 0.75	719.9
372.8 K, 2940 kPa, x1 = 0.5	708.7
372.8 K, 3000 kPa, x1 = 0.75	720.8
372.8 K, 4000 kPa, x1 = 0.75	721.8
372.8 K, 4010 kPa, x1 = 0.5	709.9
372.8 K, 5010 kPa, x1 = 0.5	710.9
372.8 K, 5010 kPa, x1 = 0.75	722.8
372.8 K, 6000 kPa, x1 = 0.5	711.9
372.8 K, 6000 kPa, x1 = 0.75	723.7
372.8 K, 7000 kPa, x1 = 0.5	712.9
372.8 K, 7010 kPa, x1 = 0.75	724.6
372.8 K, 8000 kPa, x1 = 0.5	713.9
372.8 K, 8000 kPa, x1 = 0.75	725.5
372.8 K, 8990 kPa, x1 = 0.75	726.4
372.8 K, 9010 kPa, x1 = 0.5	714.8
372.8 K, 10010 kPa, x1 = 0.5	715.8
372.8 K, 10010 kPa, x1 = 0.75	727.4
372.9 K, 1010 kPa, x1 = 1	728.2
372.9 K, 2010 kPa, x1 = 1	729.2
372.9 K, 3020 kPa, x1 = 1	730.2
372.9 K, 4000 kPa, x1 = 1	731.1
372.9 K, 5000 kPa, x1 = 1	732
372.9 K, 6020 kPa, x1 = 1	732.9
372.9 K, 7010 kPa, x1 = 1	733.8
372.9 K, 8000 kPa, x1 = 1	734.7
372.9 K, 8990 kPa, x1 = 1	735.6
372.9 K, 9980 kPa, x1 = 1	736.4
